# Laboratory results as given in the OligoGym collection.
# Bases are written 5' to 3'; sugars and linkages follow in the same order, as letters with counts (s phosphorothioate, o phosphodiester; PS: all linkages phosphorothioate). The collection does not say whether C is 5-methylated. l = locked nucleic acid (LNA); d = 2'-deoxy (DNA)
# Target: Tau
# Test: rat primary cortical neurons, FLIPR, 25 uM ASO
row,Sequence,calcium oscillation score
1,"TCCTAATCCTGTGC (sugars l3 d8 l3, PS)",65 % of control
2,"TCCTAATCCTGTGCT (sugars l3 d9 l3, PS)",140 % of control
3,"TCCTAATCCTGTGCTT (sugars l3 d10 l3, PS)",23 % of control
4,"TCCTAATTCCCAAATTCCT (sugars l2 d15 l2, PS)",57.4 % of control
5,"TCCTAATTCCCAAATTCCTC (sugars l2 d15 l3, PS)",76.6 % of control
6,"TCCTCACTTTACACATTA (sugars l3 d13 l2, PS)",62.5 % of control
7,"TCCTCACTTTACACATTAA (sugars l4 d13 l2, PS)",62.5 % of control
8,"TCCTCACTTTACACATTAAA (sugars l4 d14 l2, PS)",70.3 % of control
9,"TCCTCCATTGTAACTA (sugars l4 d10 l2, PS)",85.3 % of control
10,"TCCTCCATTGTAACTAC (sugars l2 d11 l4, PS)",63.9 % of control
11,"TCCTCCATTGTAACTACT (sugars l2 d14 l2, PS)",59.4 % of control
12,"TCCTCTCCTTTAAGAAA (sugars l3 d12 l2, PS)",79.1 % of control
13,"TCCTGGCCATCTTATGCTGA (sugars l3 d14 l3, PS)",31.2 % of control
14,"TCCTGGTTTATGATGG (sugars l3 d10 l3, PS)",2.3 % of control
15,"TCCTGGTTTATGATGGATGT (sugars l3 d14 l3, PS)",5.81 % of control
16,"TCCTGTGCTTCAGG (sugars l3 d8 l3, PS)",108 % of control
17,"TCCTGTGCTTCAGGCC (sugars l3 d10 l3, PS)",75.5 % of control
18,"TCCTTCTAAGTACAAT (sugars l4 d8 l4, PS)",54.1 % of control
19,"TCCTTCTTCATTCTTG (sugars l3 d10 l3, PS)",23.8 % of control
20,"TCCTTGAAGTCAAGCTTCTC (sugars l3 d14 l3, PS)",49.8 % of control
21,"TCCTTTGTAATTCCTTCT (sugars l3 d13 l2, PS)",56.4 % of control
22,"TCGAAACCAAGGTCCCACCA (sugars l3 d14 l3, PS)",28.2 % of control

row,Sequence,calcium oscillation score
1,"TCGATGCTGCCGGT (sugars l3 d8 l3, PS)",13 % of control
2,"TCGATGCTGCCGGTGG (sugars l3 d10 l3, PS)",33.9 % of control
3,"TCGCGGAAGGTCAGCTTGTG (sugars l3 d14 l3, PS)",20.3 % of control
4,"TCGCTTCCAGTCCC (sugars l3 d8 l3, PS)",142 % of control
5,"TCGCTTCCAGTCCCGT (sugars l3 d10 l3, PS)",110 % of control
6,"TCGTCAGCTAGCGTGG (sugars l3 d10 l3, PS)",55.2 % of control
7,"TCTAAGTAGACCCTGGCCAC (sugars l3 d14 l3, PS)",23.8 % of control
8,"TCTAATTTAGTCACCAT (sugars l4 d10 l3, PS)",96 % of control
9,"TCTACATTTTTGTCTCA (sugars l3 d11 l3, PS)",47.1 % of control
10,"TCTACCATGTCGATGC (sugars l3 d10 l3, PS)",51.8 % of control
11,"TCTAGTTATACAGTTGGCCC (sugars l3 d14 l3, PS)",21.4 % of control
12,"TCTCAAAAATCAACGCC (sugars l4 d10 l3, PS)",94.5 % of control
13,"TCTCAAATCAAACTAATAT (sugars l4 d11 l4, PS)",58.1 % of control
14,"TCTCAAGTCTTATTCTC (sugars l3 d11 l3, PS)",38.6 % of control
15,"TCTCAGATTTTACTTCC (sugars l4 d11 l2, PS)",49.3 % of control
16,"TCTCAGCTCTTCCATAAGCA (sugars l3 d14 l3, PS)",82.6 % of control
17,"TCTCAGTGGAGCCGATCTTG (sugars l3 d14 l3, PS)",0 % of control
18,"TCTCGCGGAAGGTC (sugars l3 d8 l3, PS)",75.7 % of control
19,"TCTCTAATTGTCCAATA (sugars l4 d9 l4, PS)",69 % of control
20,"TCTCTCTAGACATCTCA (sugars l2 d12 l3, PS)",68.4 % of control
21,"TCTCTCTTAACTTTATTTTA (sugars l3 d13 l4, PS)",80.8 % of control
22,"TCTCTGCTTACAAAATC (sugars l4 d9 l4, PS)",66.8 % of control

row,Sequence,calcium oscillation score
1,"TCTCTTAACTTTATTTTATT (sugars l4 d12 l4, PS)",84.9 % of control
2,"TCTGGCATGGGCACG (sugars l3 d9 l3, PS)",119 % of control
3,"TCTGTCACTTACTACTCA (sugars l3 d13 l2, PS)",66 % of control
4,"TCTGTCTTGGCTTTG (sugars l3 d9 l3, PS)",40.6 % of control
5,"TCTTAATTCATTTAATTCTC (sugars l4 d12 l4, PS)",87.1 % of control
6,"TCTTACAGCCAAATGCAGTC (sugars l3 d14 l3, PS)",23.9 % of control
7,"TCTTAGAGGACTGCAACGCA (sugars l3 d14 l3, PS)",25.7 % of control
8,"TCTTAGCATCAGAGGTTTCA (sugars l3 d14 l3, PS)",18.5 % of control
9,"TCTTAGTCATCTTCCCT (sugars l3 d12 l2, PS)",68.6 % of control
10,"TCTTATTGCTTTCCAAT (sugars l3 d10 l4, PS)",101 % of control
11,"TCTTCACATCCCAACTA (sugars l2 d12 l3, PS)",126 % of control
12,"TCTTCAGGTCTGGCAT (sugars l3 d10 l3, PS)",39.1 % of control
13,"TCTTCATTCTTGCCCA (sugars l2 d12 l2, PS)",38.1 % of control
14,"TCTTCCACTACAAGCTCC (sugars l2 d14 l2, PS)",55.8 % of control
15,"TCTTCCATCACTTCGAACTC (sugars l3 d14 l3, PS)",45.2 % of control
16,"TCTTCCTTTGTAATTCCT (sugars l3 d13 l2, PS)",57.9 % of control
17,"TCTTCTAATATCCTTGC (sugars l3 d11 l3, PS)",55.7 % of control
18,"TCTTGGCGGAAGACGG (sugars l3 d10 l3, PS)",100 % of control
19,"TCTTGTGATGCAGGA (sugars l3 d9 l3, PS)",91.8 % of control
20,"TCTTGTTCTAACCCCACA (sugars l2 d14 l2, PS)",68.1 % of control
21,"TCTTTATTAACACTCCA (sugars l4 d10 l3, PS)",72.6 % of control
22,"TCTTTATTAACACTCCAC (sugars l2 d12 l4, PS)",64.6 % of control

row,Sequence,calcium oscillation score
1,"TCTTTATTAACACTCCACA (sugars l4 d13 l2, PS)",62.5 % of control
2,"TCTTTGAACACCCCATCT (sugars l2 d14 l2, PS)",41 % of control
3,"TCTTTGCTTTTACTGACCAT (sugars l3 d14 l3, PS)",29.6 % of control
4,"TGAACAGGAGAGCCATTTCC (sugars l3 d14 l3, PS)",7.14 % of control
5,"TGAAGTCAAGCTTCTCAGAT (sugars l3 d14 l3, PS)",0 % of control
6,"TGAAGTCCCGAGCCAAAGCC (sugars l3 d14 l3, PS)",0 % of control
7,"TGAATAACATTAACCC (sugars l4 d8 l4, PS)",54 % of control
8,"TGACCTCAACTCTACC (sugars l4 d10 l2, PS)",68.5 % of control
9,"TGAGCACTAACTCTAAGTAG (sugars l3 d14 l3, PS)",21.4 % of control
10,"TGAGCCACACTTGGAGGTCA (sugars l3 d14 l3, PS)",4.52 % of control
11,"TGATAAAACATCCCTA (sugars l4 d8 l4, PS)",80.5 % of control
12,"TGATACCCTTCCTCAG (sugars l2 d12 l2, PS)",4.76 % of control
13,"TGATATTATCCTTTGAGCCA (sugars l3 d14 l3, PS)",27.4 % of control
14,"TGATATTGTCCAGGGACCCA (sugars l3 d14 l3, PS)",0 % of control
15,"TGATCACCCTAAACCA (sugars l3 d10 l3, PS)",118 % of control
16,"TGATCTTAGGCTGGC (sugars l3 d9 l3, PS)",44.1 % of control
17,"TGATGCAGGAGTTGTA (sugars l3 d10 l3, PS)",7.62 % of control
18,"TGATGGATGTTGCCTA (sugars l3 d10 l3, PS)",29.6 % of control
19,"TGATGGATGTTGCCTAATGA (sugars l3 d14 l3, PS)",0 % of control
20,"TGATTAACCAATTAACCGAA (sugars l3 d14 l3, PS)",2.59 % of control
21,"TGATTGTGGGCTTA (sugars l3 d8 l3, PS)",28.7 % of control
22,"TGATTGTGGGCTTAGG (sugars l3 d10 l3, PS)",2.71 % of control

row,Sequence,calcium oscillation score
1,"TGCAAACACTCCCTCT (sugars l2 d10 l4, PS)",35.4 % of control
2,"TGCAAGAGTCACTGCACTGC (sugars l3 d14 l3, PS)",23.8 % of control
3,"TGCAATTTCCTTTCCAT (sugars l3 d11 l3, PS)",67.6 % of control
4,"TGCACCCACTTTCCTAAT (sugars l4 d12 l2, PS)",56.2 % of control
5,"TGCCCATTCAAAATCTT (sugars l3 d11 l3, PS)",74.3 % of control
6,"TGCCTAATGAGCCACA (sugars l3 d10 l3, PS)",44.4 % of control
7,"TGCCTAATGAGCCACACTTG (sugars l3 d14 l3, PS)",29.9 % of control
8,"TGCTCAGCTAAGACCCTCAG (sugars l3 d14 l3, PS)",29.4 % of control
9,"TGCTCTTAGCATCAGAGGTT (sugars l3 d14 l3, PS)",25.9 % of control
10,"TGCTTACACACCACACA (sugars l2 d12 l3, PS)",80.5 % of control
11,"TGCTTACACACCACACAC (sugars l2 d13 l3, PS)",60.7 % of control
12,"TGCTTTTCCCAATTATT (sugars l3 d11 l3, PS)",69.5 % of control
13,"TGGAAAGATGAAATTTGCTC (sugars l3 d14 l3, PS)",5.81 % of control
14,"TGGACCACCTTACCAC (sugars l3 d10 l3, PS)",48.1 % of control
15,"TGGACGTTGCTAAGAT (sugars l3 d10 l3, PS)",0 % of control
16,"TGGAGCCGATCTTGGACTTG (sugars l3 d14 l3, PS)",0 % of control
17,"TGGATATAGTTAAGGC (sugars l2 d11 l3, PS)",95.2 % of control
18,"TGGATATAGTTAAGGC (sugars l2 d12 l2, PS)",115 % of control
19,"TGGATATAGTTAAGGC (sugars l3 d9 l4, PS)",106 % of control
20,"TGGATATAGTTAAGGC (sugars l3 d10 l3, PS)",90.5 % of control
21,"TGGATATAGTTAAGGC (sugars l4 d8 l4, PS)",117 % of control
22,"TGGATATAGTTAAGGC (sugars l4 d9 l3, PS)",107 % of control
